A short description of this data set: gradient 5% acetonitrile 3 min, to 50% in 2 min, to 85% in 15 min, held 3 min, 100 µL/min. Conditions: column: Zorbax Extend-C18 2.1 x 50 mm; eluents: water / acetonitrile, 0.1% formic acid. The essentials:
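Mixtures of ~100 pure standards were chromatographed on a Zorbax Extend-C18 column (2.1 × 50 mm, 1.8 μm) at 100 μL/min using water and acetonitrile, each with 0.1% formic acid. Detection used a quadrupole time-of-flight mass spectrometer in positive and negative ionization mode, and data collection spanned 3 months. Retention time was obtained from adduct peaks picked computationally and each checked manually.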
`COCc1noc(C2CN(C(=O)c3ocnc3C)CC23CCCC3)n1` (stereo not given): the RP-LC retention time stood at 733 s.
Under `Cc1ccc(NC(=O)Cn2nc(C(=O)N3CCCC3)c3ccccc32)cc1` stands 850 s; under `CCOC(=O)c1cnc2c(-c3ccc(Cl)cc3)c(CC)nn2c1N`, 1280 s; under `Cc1ccccc1-c1noc2ncnc(N3CCN(c4ccccn4)CC3)c12`, 673 s.
Under `CC(=O)N1CCc2nn(CC(=O)N3CCc4ccccc43)c(=O)cc2C1` stands 639 s; under `O=C(Cn1c(CO)nc2ccccc21)N1CCCc2ccccc21`, 628 s; under `CSc1cccc(NC(=O)Cn2c(-c3cnccn3)nc(C)c(C)c2=O)c1`, 769 s.
Next, `O=C(NCC1CCCO1)c1nnc(-c2ccc(S(=O)(=O)N3CCCCC3)cc2)o1` (stereo not given): 797 s; `Cc1nc(-c2cc(S(=O)(=O)NCc3ccc(OC(C)C)cc3)c(C)s2)sc1C`: 1150 s; `CCN1CCN(c2nccc(-c3cnc4nc(-c5ccncc5)nn4c3C)n2)CC1`: 562 s.
Consider `CCc1ccccc1N(C)C(=O)Cc1c(C(=O)O)c(C)cn1C`, for which the RP-LC retention time was 815 s.
Consider `Cc1ccc(NC(=O)c2cc(C(C)C)n3nccc3n2)c(F)c1`, for which the RP-LC retention time came out at 1270 s.
Next, `CC(C)(C)c1ccc(-c2noc(CN3C(=O)COc4cc(Cl)ccc43)n2)cc1`: 1360 s.
Under `CC(C)CNC(=O)c1nc2cccnc2n(CC(C)C)c1=O` stands 940 s.
Next, `CCOc1ccc(C(Nc2ccccn2)c2ccc3ccc(C)nc3c2O)cc1C` (stereo not given): 811 s.
`Cc1nc2nc(-c3ccccc3)nn2c(C)c1CC(=O)N1CCC(C)CC1` had an RP-LC retention time of 846 s.
The compound `CN(C)c1ccc(C(=O)Nc2cnc(N3CCCCC3)nc2)cc1` registered an RP-LC retention time of 882 s.
Next, `COCC(=O)N[C@@H]1CN(C2CCCCCC2)CC[C@@H]1CO`: 561 s; `Cc1ccccc1Nc1c(-c2ccccc2O)nc2ccc(Cl)cn12`: 1040 s; `Cc1nn(-c2ccc(F)cc2)c(C)c1S(=O)(=O)N1CCC(C(=O)NC2CC2)CC1`: 764 s.
Under `CCc1noc(-c2cc(=O)n(CC(=O)NCc3ccccc3F)c3ccccc23)n1` stands 890 s.
Under `Cc1ccc(NC(=O)Cn2nc(N3CCCC(C)C3)c3ccccc3c2=O)c(F)c1` (stereo not given) stands 1110 s; under `Cc1ccc(C)c(NC(=O)Cn2c(=O)n(-c3ccccc3)c3ncccc32)c1`, 852 s.
Compound `Cc1sc2ccn(CC(C)C)c(=O)c2c1C(=O)NC(C)c1ccc(F)cc1` (stereo not given) displayed an RP-LC retention time of 1030 s.
Next, `Cc1nc(Nc2ccc(Br)cn2)sc1C(=O)NC1CC1`: 735 s; `COc1ccc(C)cc1NC(=O)C(=O)NCCc1csc(-c2ccc(Cl)cc2)n1`: 1280 s.
Under `Cc1ccccc1CN1CCN(CC(=O)N2CCN(Cc3ccccc3)CC2)C(=O)C1=O` stands 609 s.
Next, `CSc1ccc(CNc2cc(-n3nc(C)cc3C)ncn2)cc1`: 1000 s.
As for `CCOC(=O)c1ccc(Nc2nc(C(=O)OCC)nc3ccccc23)cc1`, the RP-LC retention time is 896 s.
Under `Cn1c(CN2CCN(C(=O)NC(c3ccccc3)c3ccccc3)CC2)nc2ccccc21` stands 620 s; under `CC(C)NC(=O)N1CCCC(c2cccc(C(=O)NCCN3CCOCC3)c2)C1` (stereo not given), 591 s.
Compound `O=C(NCCC1CCN(S(=O)(=O)c2ccccc2)CC1)Nc1ccccc1` yielded an RP-LC retention time of 856 s.
For the compound `C[C@@H](NCCCc1cccc(C(F)(F)F)c1)c1cccc2ccccc12`, the RP-LC retention time is 828 s.
Under `COC(=O)c1ccc(NC(=O)C2CCCN(S(=O)(=O)c3cc(-c4noc(C)n4)cs3)C2)cc1` (stereo not given) stands 984 s; under `Cc1cccc(CNC(=O)C2CCN(C(=O)C3Sc4ccccc4NC3=O)CC2)c1` (stereo not given), 762 s; under `COc1ccccc1OCC(=O)NCCc1sc(-c2ccc(Cl)cc2)nc1C`, 953 s.
Under `CCN1CCN(CC2CCN(S(=O)(=O)c3cc(F)cc(F)c3)CC2)CC1` stands 598 s.
The compound `O=C(NCc1cccnc1)C1(c2ccccc2)CCOCC1` returned an RP-LC retention time of 540 s.
Under `CCC(C)(C)NC(=O)CN1C(=O)CCCc2cc(S(=O)(=O)N3CCC(C)CC3)ccc21` stands 963 s; under `Cc1ccc(-n2c(N3CCCC(C(=O)NCc4cccs4)C3)nc3ccsc3c2=O)cc1` (stereo not given), 880 s.
Under `CCc1cccc(-n2nnc(C(=O)N3CCC4(CC3)OCCO4)c2-c2ccncc2)c1` stands 744 s; under `COCCN1C(=O)CCc2cc(NS(=O)(=O)c3c(C)cccc3Cl)ccc21`, 795 s.
`O=S(=O)(c1ccc(F)cc1)N1CCC2(CC1)NCCN=C2NCc1cccc(F)c1` returned an RP-LC retention time of 691 s.
Under `COCCN1CC2(CCN(S(=O)(=O)c3ccc(C)c(Cl)c3)CC2)C1c1ccccc1` (stereo not given) stands 765 s; under `COCCNC(=O)C1Cc2ccccc2CN1S(=O)(=O)c1cccc(C)c1` (stereo not given), 845 s; under `Cc1ccc(C)c(NC(=O)N2CCCC(Cn3c(C4CC4)nc4cccnc43)C2)c1` (stereo not given), 680 s.
As for `CC1Oc2ccc(-c3csc(NC(=O)c4ccncc4)n3)cc2N(C)C1=O` (stereo not given), the RP-LC retention time came to 766 s.
Next, `O=C(c1ccncc1)N1CCCC(OCc2nc(C3CC3)no2)C1` (stereo not given): 620 s.
Next, `COc1ccc(C(=O)N2CCC(COc3ccc(C(=O)NC4CC4)cc3)CC2)cc1F`: 798 s; `COc1ccccc1NC(=O)Oc1cccc(OC(=O)c2ccccc2)c1`: 653 s.
Under `Cc1c2c(nn1-c1ccc(SCc3cccc(F)c3)nn1)CCC2` stands 1280 s; under `Cc1cc(OCC(=O)N2CCCCC2CCN2CCOCC2)ccc1Cl` (stereo not given), 689 s; under `COc1ccc(CNC(=O)C2CC(=O)N(c3ccc4c(c3)CCN4C(C)=O)C2)cc1` (stereo not given), 664 s.
With `COCCCn1cc(C(=O)N2CCc3ccccc3C2)c2nn(-c3ccccc3)c(=O)c-2c1`, the RP-LC retention time came out at 770 s.
The compound `Cc1nc(OCC(=O)Nc2ccc(Br)cc2)c2ccccc2n1` displayed an RP-LC retention time of 794 s.
Next, `CCN(CC)c1ccc(NC(=O)CSc2cc(N3CCCC3)ncn2)c(C)c1`: 600 s; `Cc1ccc(NC(=O)N2CCc3c(c(-c4nnc(-c5ccc(F)cc5)o4)nn3C)C2)cc1C`: 943 s; `CCOC(=O)c1c(C)[nH]c(C)c1S(=O)(=O)N1CCC(C(=O)NCCc2sccc2C)CC1`: 794 s.
`Cc1nn(C(=O)CCc2ccccc2)c(C)c1S(=O)(=O)N1CCCC1` gave an RP-LC retention time of 1180 s.
Turning to `CCN(CC)c1ncnc2c(-c3ccccc3)cn(CC(=O)NCCc3ccc(OC)c(OC)c3)c12`, the RP-LC retention time worked out at 726 s.
Next, `Cc1cccc(NC(=O)COc2cc(C)nc(N3CCN(c4ccccc4)CC3)n2)c1`: 856 s; `O=C(c1ccoc1)N1CCC2(CC1)N=C(c1cccc(Br)c1)NO2`: 763 s.
Next, `O=C(Nc1cc(-c2ccccn2)no1)C1CCCCC1`: 827 s.
In turn, `Cc1nn2c(CNC(=O)c3cccs3)c(-c3ccccc3)nc2s1` returned an RP-LC retention time of 797 s.
Under `Cc1oc2ncn(CC(C)C)c(=O)c2c1C(=O)N1CCN(c2ccccn2)CC1` stands 568 s; under `COc1ccc2[nH]c(=O)c(CCC(=O)N(C)Cc3cn(C)nc3C)cc2c1`, 618 s.
Next, `CCN(Cc1ccccc1)C(=O)c1c(C)sc2ccn(CC)c(=O)c12`: 754 s.
Next, `CCc1nnc(-c2ccc3ccn(CC(=O)NCc4cccs4)c3c2)o1`: 790 s; `Cc1cc(N2CCCC2)nc(N2CCN(C(=O)CC3CCCC3)CC2)n1`: 694 s.
`O=C(CCNc1cnc2cnccn12)Nc1ccc2c(c1)OCO2` registered an RP-LC retention time of 570 s.
`Cc1cccc(C2(O)C(=O)N(Cc3ccc(C#N)cc3)c3ccccc32)c1` (stereo not given): the RP-LC retention time came to 825 s.
Next, `O=C(Cn1cnc2nc(N3CCC(C(=O)NC4CC4)CC3)sc2c1=O)NC1CCCCC1`: 649 s; `Cc1sc(-c2noc(C3CCC3)n2)cc1S(=O)(=O)N1CCC(C(=O)N2CCCCC2)CC1`: 1050 s.
`COc1ccc(C)cc1NC(=O)c1cc(C(C)C)n2nccc2n1`: the RP-LC retention time amounted to 1270 s.
Next, `O=C(Nc1cc(C(F)(F)F)cc(C(F)(F)F)c1)c1ccc(=O)[nH]n1`: 814 s; `Cc1ccccc1OCC(=O)N1CC2CN(S(=O)(=O)c3ccc(F)cc3)CC(C1)O2`: 903 s; `CCc1ccc(NC(=O)Cc2c(C)nn(-c3nc(-c4ccc(Cl)cc4)cs3)c2C)cc1`: 972 s.
Under `Cc1noc(C)c1CNC(=O)CCCc1ccccc1` stands 760 s; under `O=C(C1CCN(Cc2cnn(-c3ccccc3)c2-n2cccc2)CC1)N1CCN(c2ccccc2)CC1`, 750 s; under `Cc1cc(C)cc(NC(=O)Cc2csc3nc(-c4cccc(Cl)c4)cn23)c1`, 1070 s.

The values are drawn from the METLIN SMRT retention time set (Domingo-Almenara et al. 2019).
